Measured values as given in ChEMBL document CHEMBL1201862, “PubChem BioAssay data set” (2004).
Active and inactive are the calls of the source.

Assays:
[1] = A Cell Based Secondary Assay To Explore Cytotoxicity of Compounds that Sensitize Mycobacterium Tuberculosis to Beta-Lactam Antibiotics.; type: functional
Aminopeptidase N = biological target: T1, Aminopeptidase N (Plasmodium falciparum FcB1/Columbia, UniProt O96935); experiment: malaria alanyl aminopeptidase activity blockers – biochemical, fluorogenic H-Leu-NHMec substrate, 1536-well (AID 1445); design: species or system Plasmodium falciparum 3D7, 3D7
T1 sequence (O96935 whole entry): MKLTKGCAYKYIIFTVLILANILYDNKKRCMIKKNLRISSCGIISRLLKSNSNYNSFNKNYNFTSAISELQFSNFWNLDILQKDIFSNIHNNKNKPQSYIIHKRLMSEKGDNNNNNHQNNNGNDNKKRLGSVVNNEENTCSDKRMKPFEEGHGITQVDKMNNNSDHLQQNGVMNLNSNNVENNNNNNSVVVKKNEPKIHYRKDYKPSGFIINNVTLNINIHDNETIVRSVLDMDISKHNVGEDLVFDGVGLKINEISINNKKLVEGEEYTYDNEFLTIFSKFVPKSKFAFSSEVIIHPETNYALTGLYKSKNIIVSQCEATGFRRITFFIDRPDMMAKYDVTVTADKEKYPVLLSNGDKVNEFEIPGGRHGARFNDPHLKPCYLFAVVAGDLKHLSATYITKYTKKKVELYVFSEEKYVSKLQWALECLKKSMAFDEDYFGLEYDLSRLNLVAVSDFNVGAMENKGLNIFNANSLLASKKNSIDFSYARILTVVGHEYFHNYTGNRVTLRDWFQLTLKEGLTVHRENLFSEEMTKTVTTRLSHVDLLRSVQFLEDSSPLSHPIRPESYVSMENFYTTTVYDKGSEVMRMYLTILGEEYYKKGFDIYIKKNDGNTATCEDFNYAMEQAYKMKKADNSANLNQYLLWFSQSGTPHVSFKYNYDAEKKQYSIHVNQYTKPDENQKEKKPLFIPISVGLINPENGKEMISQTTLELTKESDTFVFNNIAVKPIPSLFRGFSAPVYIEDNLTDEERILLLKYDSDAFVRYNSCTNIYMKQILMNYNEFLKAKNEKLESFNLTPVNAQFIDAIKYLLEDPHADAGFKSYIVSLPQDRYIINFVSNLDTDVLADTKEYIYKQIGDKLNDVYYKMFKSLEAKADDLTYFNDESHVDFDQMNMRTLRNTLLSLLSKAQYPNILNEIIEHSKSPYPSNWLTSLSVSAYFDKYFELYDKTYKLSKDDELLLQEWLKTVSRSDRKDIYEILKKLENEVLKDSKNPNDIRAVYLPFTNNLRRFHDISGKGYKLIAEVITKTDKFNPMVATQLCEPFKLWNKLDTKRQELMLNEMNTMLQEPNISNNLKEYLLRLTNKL

Prothrombin = Prothrombin (Homo sapiens, UniProt P00734); experiment: Thrombin 1536 HTS Dose Response Confirmation. [Related pubchem assays: 1046 (Thrombin 1536 HTS; hits were confirmed in this assay)]; type: functional
[2] = biological target: T2, Corticotropin-releasing factor receptor 2/Corticotropin-releasing factor-binding protein (Homo sapiens, UniProt P24387+Q13324); experiment: Dose Response confirmation of uHTS hits for small molecule antagonists of the CRF-binding protein and CRF-R2 receptor complex.; type: functional; settings: read-out: IC50_Mean
T2 sequence (Q13324 whole entry): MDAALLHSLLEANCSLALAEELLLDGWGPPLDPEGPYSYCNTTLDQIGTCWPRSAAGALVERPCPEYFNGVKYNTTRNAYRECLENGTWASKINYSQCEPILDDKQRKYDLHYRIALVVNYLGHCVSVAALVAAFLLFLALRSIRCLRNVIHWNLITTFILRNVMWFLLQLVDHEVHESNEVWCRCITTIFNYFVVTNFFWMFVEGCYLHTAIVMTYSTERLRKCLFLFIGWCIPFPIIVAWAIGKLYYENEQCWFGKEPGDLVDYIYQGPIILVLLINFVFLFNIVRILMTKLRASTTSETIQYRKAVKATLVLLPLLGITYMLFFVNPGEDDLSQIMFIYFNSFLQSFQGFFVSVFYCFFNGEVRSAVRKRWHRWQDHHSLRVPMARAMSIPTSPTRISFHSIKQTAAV
T2 sequence (P24387 whole entry): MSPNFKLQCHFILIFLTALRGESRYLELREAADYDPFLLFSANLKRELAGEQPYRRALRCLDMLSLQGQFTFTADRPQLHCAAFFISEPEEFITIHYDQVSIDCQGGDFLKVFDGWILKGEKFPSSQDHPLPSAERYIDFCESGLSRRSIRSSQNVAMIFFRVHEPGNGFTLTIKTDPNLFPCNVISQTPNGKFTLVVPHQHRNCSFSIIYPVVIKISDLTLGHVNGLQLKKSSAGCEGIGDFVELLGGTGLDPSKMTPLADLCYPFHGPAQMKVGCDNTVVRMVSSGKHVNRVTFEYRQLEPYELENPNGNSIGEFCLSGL

[3] = biological target: T2, Corticotropin-releasing factor receptor 2/Corticotropin-releasing factor-binding protein; experiment: activators of CRF receptor 2 with binding protein – uHTS hits, confirmation (AID 602473); type: functional; settings: read-out: EC50_Mean
fMet-Leu-Phe receptor = biological target: T3, fMet-Leu-Phe receptor (Homo sapiens, UniProt P21462); experiment: formyl peptide receptor binders – dose response (AID 519); type: functional
T3 sequence (P21462 whole entry): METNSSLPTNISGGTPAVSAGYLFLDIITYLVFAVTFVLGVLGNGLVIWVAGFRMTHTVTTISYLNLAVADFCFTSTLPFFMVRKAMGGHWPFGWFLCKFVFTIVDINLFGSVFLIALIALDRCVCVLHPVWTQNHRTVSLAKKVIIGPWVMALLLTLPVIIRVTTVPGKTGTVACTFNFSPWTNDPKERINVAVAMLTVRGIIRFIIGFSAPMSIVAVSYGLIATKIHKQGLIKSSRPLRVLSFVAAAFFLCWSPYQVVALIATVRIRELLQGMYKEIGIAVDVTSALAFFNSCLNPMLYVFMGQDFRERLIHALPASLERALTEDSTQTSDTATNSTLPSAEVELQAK

cells = type: functional
[4] = viability of HCT116 lacking mutant beta-catenin – cell-based, human colon tumor, dose response (AID 1045); type: functional;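 further: HCT116 colon tumor cells with beta catenin knocked out; cells exposed to compound for 60 hours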
[5] = viability of PTEN-deleted HCT116 cells – cell-based, HCT116 PTEN knockout, dose response (AID 1047); type: functional;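 further: HCT116 colon tumor cells with PTEN knocked out; cells exposed to compound for 60 hours before readout; potency for loss of cell viability measured by luminescence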
[6] = biological target: T4, Calpain-2 catalytic subunit (Sus scrofa, UniProt P43367); experiment: m-calpain protease blockers, concentration series – biochemical, fluorogenic peptide substrate, dose response (AID 1420); type: functional
T4 sequence (P43367 whole entry): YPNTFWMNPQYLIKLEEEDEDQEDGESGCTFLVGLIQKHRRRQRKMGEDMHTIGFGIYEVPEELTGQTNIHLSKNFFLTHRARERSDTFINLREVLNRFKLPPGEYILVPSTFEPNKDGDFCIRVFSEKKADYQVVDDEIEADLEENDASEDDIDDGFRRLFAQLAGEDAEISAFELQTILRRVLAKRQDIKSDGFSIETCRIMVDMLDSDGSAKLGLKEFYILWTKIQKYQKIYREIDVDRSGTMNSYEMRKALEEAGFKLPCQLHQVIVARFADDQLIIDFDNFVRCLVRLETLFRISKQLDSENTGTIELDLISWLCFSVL

[7] = microbe, parasite or virus in culture; type: functional; settings: Mycobacterium tuberculosis
INS1 = experiment: INS-1E survival protection against cytokine death – cell-based, luminescence, retest, dose response (AID 449756); type: functional; settings: Rattus norvegicus;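 further: cell death triggered by IL-1 beta plus TNF-alpha plus IFN-gamma mixture; protective hits raise ATP signal compared with cytokine alone wells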

For `COc1ccc(-c2cc(-c3ccc(OC)cc3)nc(-c3ccc4c(c3)NC(=O)CO4)c2)cc1`, the CC50 [1] was 38.7 µM (active).

With `COc1ccc(/C=C2\SC(=S)N(C(C(=O)O)c3ccccc3)C2=O)c(OC)c1` (configuration not stated) the IC50 (Aminopeptidase N) was 21.9 µM (active).

For `Nc1nc(-c2cccnc2)nn1C(=O)c1ccc(Cl)cc1`, the IC50 (Prothrombin) was 0.781 µM (active).

With `O=C(c1cccnc1)n1nc(-c2ccco2)nc1NCc1cccs1` the IC50 (Prothrombin) was 0.001 µM (active).

For `COc1cc(C2C(C(=O)c3ccco3)=C(O)C(=O)N2c2cc(C)on2)cc(Br)c1O` (configuration not stated), the IC50 [2] was > 47.1 µM (inactive), the EC50 [3] was > 53 µM (inactive) and the Ki (fMet-Leu-Phe receptor) was 47.7 µM (inactive).

For `O=C(Nc1nc2ccccc2n1CCN1CCCC1)C1CCCCC1`, the IC50 (cells) was 46.9 µM (active) and the CC50 [1] was > 40 µM (active).

For `O=C(Nc1ccc2oc(-c3ccc(Cl)c(Cl)c3)nc2c1)c1nc[nH]n1`, the EC50 [4] was 4.31 µM (active), the CC50 [1] was 16.4 µM (active) and the EC50 [5] was 3.34 µM (active).

For `CCCCCCCNC1=CC(=O)CC(c2ccccc2)C1` (configuration not stated), the IC50 [6] was 9.58 µM (not active), the CC50 [7] was 38 µM (active) and the AC50 (INS1) was 6.36 µM (active).

In the case of `CCN(CC)CCNC(=O)c1ccc(NC(=O)c2cn(-c3ccccc3)nc2-c2cccs2)cc1`, the CC50 [7] is reported as 7.35 µM (active) and the AC50 (INS1) is reported as 6.79 µM (active).
